Results from US20230150974A1 (Foghorn Therapeutics Inc., priority 2020, published 2023).

What was measured:
HiBiT-BRM = biological target: T1, HiBiT-BRM (Homo sapiens, UniProt P51531); test: HiBiT-BRM cell-based degradation assay (Nano-Glo HiBiT Lytic Detection); conditions: HeLa cells expressing HiBiT-BRM, 24 h; for DC50: read-out: BRM HiBit Degradation IC50
T1 construct: expressed in transfected cells
In short: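 HeLa cells stably expressing HiBiT-tagged BRM were treated for 24 h, then lysed with LgBiT-containing Nano-Glo reagent and luminescence read. % degradation scaled between DMSO (high control) and 2 μM reference BRM/BRG1 degrader (low control).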

HiBit-BRG1 = biological target: T2, HiBit-BRG1 (Homo sapiens, UniProt P51532); test: HiBit-BRG1 cell-based degradation assay (Nano-Glo HiBiT Lytic Detection); conditions: HeLa cells expressing HiBit-BRG1 and LgBit, 24 h; for DC50: read-out: BRG1 HiBit Degradation IC50; for Dmax: read-out: BRG1 HiBit Degradation Maximum (%)
T2 construct: expressed in transfected cells
In short: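 Seed 5000 HeLa HiBit-BRG1/LgBit cells per well; treat 24 h; equilibrate 15 min at room temperature; add Nano-Glo HiBiT lytic reagent, shake 10 min, read luminescence. Percent degradation is scaled between DMSO and 2 μM reference degrader wells.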

T1 sequence (P51531 whole entry): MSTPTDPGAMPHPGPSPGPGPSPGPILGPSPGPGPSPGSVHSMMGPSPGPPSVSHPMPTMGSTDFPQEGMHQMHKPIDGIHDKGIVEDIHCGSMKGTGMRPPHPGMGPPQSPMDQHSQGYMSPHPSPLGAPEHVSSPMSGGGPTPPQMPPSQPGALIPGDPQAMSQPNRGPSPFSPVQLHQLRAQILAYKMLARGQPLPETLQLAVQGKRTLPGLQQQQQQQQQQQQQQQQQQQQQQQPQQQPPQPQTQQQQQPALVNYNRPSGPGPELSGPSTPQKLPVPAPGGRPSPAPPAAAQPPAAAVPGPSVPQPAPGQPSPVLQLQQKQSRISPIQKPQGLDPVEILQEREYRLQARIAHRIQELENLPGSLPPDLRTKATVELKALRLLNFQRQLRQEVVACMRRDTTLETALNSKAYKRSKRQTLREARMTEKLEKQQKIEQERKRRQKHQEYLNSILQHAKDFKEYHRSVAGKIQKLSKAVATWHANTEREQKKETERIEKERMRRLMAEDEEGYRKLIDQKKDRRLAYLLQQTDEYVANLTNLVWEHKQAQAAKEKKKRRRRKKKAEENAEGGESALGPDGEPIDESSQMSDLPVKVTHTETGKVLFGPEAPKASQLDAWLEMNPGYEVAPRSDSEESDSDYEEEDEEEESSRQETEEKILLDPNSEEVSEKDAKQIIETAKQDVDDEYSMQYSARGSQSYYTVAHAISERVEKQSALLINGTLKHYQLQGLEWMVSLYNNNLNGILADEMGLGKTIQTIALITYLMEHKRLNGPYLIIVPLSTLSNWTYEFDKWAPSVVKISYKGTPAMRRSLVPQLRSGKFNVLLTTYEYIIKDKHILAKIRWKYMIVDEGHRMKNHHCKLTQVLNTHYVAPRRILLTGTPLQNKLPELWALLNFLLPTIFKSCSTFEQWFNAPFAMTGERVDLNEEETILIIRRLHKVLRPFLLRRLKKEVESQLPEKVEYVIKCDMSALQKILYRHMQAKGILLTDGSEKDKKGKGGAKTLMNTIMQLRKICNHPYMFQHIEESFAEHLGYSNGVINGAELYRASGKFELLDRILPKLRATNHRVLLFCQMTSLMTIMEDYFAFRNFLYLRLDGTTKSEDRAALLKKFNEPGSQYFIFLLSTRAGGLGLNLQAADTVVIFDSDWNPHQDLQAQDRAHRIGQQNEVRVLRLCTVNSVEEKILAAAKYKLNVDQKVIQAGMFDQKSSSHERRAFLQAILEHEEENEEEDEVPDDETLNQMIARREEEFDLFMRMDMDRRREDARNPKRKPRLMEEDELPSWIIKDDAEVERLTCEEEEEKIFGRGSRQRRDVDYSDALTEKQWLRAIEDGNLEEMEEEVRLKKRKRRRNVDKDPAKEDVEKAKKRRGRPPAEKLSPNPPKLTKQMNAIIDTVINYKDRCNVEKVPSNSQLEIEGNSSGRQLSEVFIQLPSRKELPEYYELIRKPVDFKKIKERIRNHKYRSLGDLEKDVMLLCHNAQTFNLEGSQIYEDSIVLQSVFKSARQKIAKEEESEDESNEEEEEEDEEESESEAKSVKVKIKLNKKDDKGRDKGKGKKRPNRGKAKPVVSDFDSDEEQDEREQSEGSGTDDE
T2 sequence (P51532 whole entry): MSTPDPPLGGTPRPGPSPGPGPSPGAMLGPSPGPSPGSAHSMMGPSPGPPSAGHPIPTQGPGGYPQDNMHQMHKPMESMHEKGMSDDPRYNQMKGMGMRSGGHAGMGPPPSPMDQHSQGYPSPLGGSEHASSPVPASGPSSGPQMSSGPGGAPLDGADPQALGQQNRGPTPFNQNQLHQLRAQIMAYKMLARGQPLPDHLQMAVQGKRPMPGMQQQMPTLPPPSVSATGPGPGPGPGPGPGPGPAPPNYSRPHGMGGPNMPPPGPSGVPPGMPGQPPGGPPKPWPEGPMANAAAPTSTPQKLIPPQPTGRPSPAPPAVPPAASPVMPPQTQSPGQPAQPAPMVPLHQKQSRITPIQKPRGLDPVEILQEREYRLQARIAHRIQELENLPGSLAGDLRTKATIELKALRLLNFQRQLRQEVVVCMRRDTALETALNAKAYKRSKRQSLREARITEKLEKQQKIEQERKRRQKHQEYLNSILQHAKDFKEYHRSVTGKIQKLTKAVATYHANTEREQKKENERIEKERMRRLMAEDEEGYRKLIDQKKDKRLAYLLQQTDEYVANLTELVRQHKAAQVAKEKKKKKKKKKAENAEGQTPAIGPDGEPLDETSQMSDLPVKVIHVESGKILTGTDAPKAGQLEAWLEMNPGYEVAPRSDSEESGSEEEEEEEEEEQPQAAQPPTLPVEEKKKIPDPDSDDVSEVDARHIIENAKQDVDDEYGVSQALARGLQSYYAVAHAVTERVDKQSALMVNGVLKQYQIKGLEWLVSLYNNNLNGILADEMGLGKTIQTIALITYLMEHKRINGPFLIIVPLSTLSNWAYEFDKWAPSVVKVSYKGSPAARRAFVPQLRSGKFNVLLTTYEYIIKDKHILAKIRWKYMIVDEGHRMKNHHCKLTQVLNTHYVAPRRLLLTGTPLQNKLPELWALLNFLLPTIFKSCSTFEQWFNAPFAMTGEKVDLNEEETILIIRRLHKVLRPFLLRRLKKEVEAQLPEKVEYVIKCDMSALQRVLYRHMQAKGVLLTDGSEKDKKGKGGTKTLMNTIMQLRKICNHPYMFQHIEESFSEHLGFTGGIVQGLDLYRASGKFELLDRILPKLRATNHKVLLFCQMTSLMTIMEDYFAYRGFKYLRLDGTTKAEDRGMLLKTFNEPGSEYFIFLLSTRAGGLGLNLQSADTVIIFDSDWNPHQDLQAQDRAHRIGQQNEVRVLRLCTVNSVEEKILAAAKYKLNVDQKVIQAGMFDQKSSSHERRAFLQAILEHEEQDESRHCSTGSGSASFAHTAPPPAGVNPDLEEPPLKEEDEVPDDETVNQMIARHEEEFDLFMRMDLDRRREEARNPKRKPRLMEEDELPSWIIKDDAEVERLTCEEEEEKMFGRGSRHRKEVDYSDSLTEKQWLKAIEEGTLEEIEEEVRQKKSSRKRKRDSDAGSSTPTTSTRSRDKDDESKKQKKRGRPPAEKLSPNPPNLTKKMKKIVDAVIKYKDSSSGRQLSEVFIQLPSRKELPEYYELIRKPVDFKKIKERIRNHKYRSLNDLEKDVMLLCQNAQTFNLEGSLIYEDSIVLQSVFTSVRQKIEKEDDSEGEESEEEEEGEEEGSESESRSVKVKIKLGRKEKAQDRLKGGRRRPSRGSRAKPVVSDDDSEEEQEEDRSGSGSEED

In the case of Nc1nnc(-c2ccccc2O)cc1OCCc1ccc(CNCCCC2CN(c3cccc4c3C(=O)N(C3CCC(=O)NC3=O)C4=O)C2)cc1 (stereo not drawn) [Compound 114, 4-(3-(3-((4-(2-((3-amino-6-(2-hydroxyphenyl)pyridazin-4-yl)oxy)ethyl)benzyl)amino)propyl)azetidin-1-yl)-2-(2,6-dioxopiperidin-3-yl)isoindoline-1,3-dione], the “BRM HiBit Degradation Maximum (%)” value (HiBiT-BRM) is reported as “B (“B” indicates maximum degradation ≥50%)”, the DC50 (HiBiT-BRM) is reported as over 10 nM and the DC50 (HiBit-BRG1) is reported as over 1000 nM. The Dmax (HiBit-BRG1) was over 50%.

Cc1ncsc1-c1ccc(CNC(=O)[C@@H]2C[C@@H](O)CN2C(=O)[C@@H](NC(=O)CCN2CC(C3CN(C(=O)c4ccc(CCOc5cc(-c6ccccc6O)nnc5N)cc4)C3)C2)C(C)(C)C)cc1 [Compound 224, (2S,4R)-1-((S)-2-(3-(1′-(4-(2-((3-amino-6-(2-hydroxyphenyl)pyridazin-4-yl)oxy)ethyl)benzoyl)-[3,3′-biazetidin]-1-yl)propanamido)-3,3-dimethylbutanoyl)-4-hydroxy-N-(4-(4-methylthiazol-5-yl)benzyl)pyrrolidine-2-carboxamide] was tested, and the “BRM HiBit Degradation Maximum (%)” value (HiBiT-BRM) was “C (“C” indicates maximum degradation <50%)”, the DC50 (HiBiT-BRM) was over 1000 nM and the DC50 (HiBit-BRG1) was over 1000 nM. It also gave a Dmax (HiBit-BRG1) of under 50%.

For Nc1nnc(-c2ccccc2O)cc1OCCc1ccc(C(=O)NCCCCCC(=O)NCc2ccc(S(=O)(=O)Nc3cccc4c(Cl)c[nH]c34)cc2)cc1 [Compound 14, 6-[[4-(2-[[3-amino-6-(2-hydroxyphenyl)pyridazin-4-yl]oxy]ethyl)phenyl]formamido]-N-([4-[(3-chloro-1H-indol-7-yl)sulfamoyl]phenyl]methyl)hexanamide], the “BRM HiBit Degradation Maximum (%)” value (HiBiT-BRM) was “C (“C” indicates maximum degradation <50%)”, the DC50 (HiBiT-BRM) was over 1000 nM and the DC50 (HiBit-BRG1) was over 1000 nM. It also gave a Dmax (HiBit-BRG1) of under 50%.

For Nc1nnc(-c2ccccc2O)cc1N1CCN(CC(=O)N2CC(COc3cccc4c3C(=O)N(C3CCC(=O)NC3=O)C4=O)C2)CC1 (stereo not drawn) [Compound 76, 4-[[1-(2-[4-[3-amino-6-(2-hydroxyphenyl)pyridazin-4-yl]piperazin-1-yl]acetyl)azetidin-3-yl]methoxy]-2-(2,6-dioxopiperidin-3-yl)isoindole-1,3-dione], the “BRM HiBit Degradation Maximum (%)” value (HiBiT-BRM) was “C (“C” indicates maximum degradation <50%)”, the DC50 (HiBiT-BRM) was over 1000 nM and the DC50 (HiBit-BRG1) was over 1000 nM. For the same compound, the Dmax (HiBit-BRG1) was under 50%.

Cc1ncsc1-c1ccc(CNC(=O)[C@@H]2C[C@@H](O)CN2C(=O)[C@@H](NC(=O)CCN2C[C@@H]3[C@H](C2)[C@H]3C(=O)NCc2ccc(CCOc3cc(-c4ccccc4O)nnc3N)cc2)C(C)(C)C)cc1 [Compound 184, (1R,5S,6S)-N-[[4-(2-[[3-amino-6-(2-hydroxyphenyl)pyridazin-4-yl]oxy]ethyl)phenyl]methyl]-3-(2-[[(2S)-1-[(2S,4R)-4-hydroxy-2-([[4-(4-methyl-1,3-thiazol-5-yl)phenyl]methyl]carbamoyl)pyrrolidin-1-yl]-3,3-dimethyl-1-oxobutan-2-yl]carbamoyl]ethyl)-3-azabicyclo[3.1.0]hexane-6-carboxamide] was tested, and the “BRM HiBit Degradation Maximum (%)” value (HiBiT-BRM) was “B (“B” indicates maximum degradation ≥50%)”, the DC50 (HiBiT-BRM) was over 1000 nM and the DC50 (HiBit-BRG1) was over 1000 nM. It also gave a Dmax (HiBit-BRG1) of under 50%.

In the case of Cc1ncsc1-c1ccc(CNC(=O)[C@@H]2C[C@@H](O)CN2C(=O)[C@@H](NC(=O)COCCOCCOCCNC(=O)CN2CCN(c3cc(-c4ccccc4O)nnc3N)CC2)C(C)(C)C)cc1 [Compound 86, (2S,4R)-1-[(2S)-2-[2-(2-[2-[2-(2-[4-[3-amino-6-(2-hydroxyphenyl)pyridazin-4-yl]piperazin-1-yl]acetamido)ethoxy]ethoxy]ethoxy)acetamido]-3,3-dimethylbutanoyl]-4-hydroxy-N-[[4-(4-methyl-1,3-thiazol-5-yl)phenyl]methyl]pyrrolidine-2-carboxamide], the “BRM HiBit Degradation Maximum (%)” value (HiBiT-BRM) is reported as “C (“C” indicates maximum degradation <50%)”, the DC50 (HiBiT-BRM) is reported as over 1000 nM and the DC50 (HiBit-BRG1) is reported as over 1000 nM. The Dmax (HiBit-BRG1) was under 50%.

For Nc1nnc(-c2ccccc2O)cc1OCCc1ccc(C(=O)NCCOCCOCCNc2cccc3c2CN(C2CCC(=O)NC2=O)C3=O)cc1 (stereo not drawn) [Compound 54, 4-(2-[[3-amino-6-(2-hydroxyphenyl)pyridazin-4-yl]oxy]ethyl)-N-[2-[2-(2-[[2-(2,6-dioxopiperidin-3-yl)-1-oxo-3H-isoindol-4-yl]amino]ethoxy)ethoxy]ethyl]benzamide], the “BRM HiBit Degradation Maximum (%)” value (HiBiT-BRM) was “C (“C” indicates maximum degradation <50%)”, the DC50 (HiBiT-BRM) was over 1000 nM and the DC50 (HiBit-BRG1) was over 1000 nM. The Dmax (HiBit-BRG1) was under 50%.

Cc1ncsc1-c1ccc(CNC(=O)[C@@H]2C[C@@H](O)CN2C(=O)[C@@H](NC(=O)CCCCCCCCCCCCCC(=O)NCc2ccc(CCOc3cc(-c4ccccc4O)nnc3N)cc2)C(C)(C)C)cc1 [Compound 35, N1-(4-(2-((3-amino-6-(2-hydroxyphenyl)pyridazin-4-yl)oxy)ethyl)benzyl)-N15-((S)-1-((2S,4R)-4-hydroxy-2-((4-(4-methylthiazol-5-yl)benzyl)carbamoyl)pyrrolidin-1-yl)-3,3-dimethyl-1-oxobutan-2-yl)pentadecanediamide] was tested, and the “BRM HiBit Degradation Maximum (%)” value (HiBiT-BRM) was “A (“A” indicates maximum degradation ≥75%)”, the DC50 (HiBiT-BRM) was over 10 nM and the DC50 (HiBit-BRG1) was over 1000 nM. The Dmax (HiBit-BRG1) was under 50%.

Nc1nnc(-c2ccccc2O)cc1OCCc1ccc(C(=O)NCCC(=O)NCc2ccc(S(=O)(=O)Nc3cccc4c(Cl)c[nH]c34)cc2)cc1 [Compound 17, 3-[[4-(2-[[3-amino-6-(2-hydroxyphenyl)pyridazin-4-yl]oxy]ethyl)phenyl]formamido]-N-([4-[(3-chloro-1H-indol-7-yl)sulfamoyl]phenyl]methyl)propanamide] was tested, and the “BRM HiBit Degradation Maximum (%)” value (HiBiT-BRM) was “C (“C” indicates maximum degradation <50%)”, the DC50 (HiBiT-BRM) was over 1000 nM and the DC50 (HiBit-BRG1) was over 1000 nM. The Dmax (HiBit-BRG1) was under 50%.

Nc1nnc(-c2ccccc2O)cc1N1CCN(CC(=O)NCCCCCNc2ccc3c(c2)C(=O)N(C2CCC(=O)NC2=O)C3=O)CC1 (stereo not drawn) [Compound 87, 2-[4-[3-amino-6-(2-hydroxyphenyl)pyridazin-4-yl]piperazin-1-yl]-N-(5-[[2-(2,6-dioxopiperidin-3-yl)-1,3-dioxo-2,3-dihydro-1H-isoindol-5-yl]amino]pentyl)acetamide; formic acid] was tested, and the “BRM HiBit Degradation Maximum (%)” value (HiBiT-BRM) was “B (“B” indicates maximum degradation ≥50%)”, the DC50 (HiBiT-BRM) was over 1000 nM and the DC50 (HiBit-BRG1) was over 1000 nM. For the same compound, the Dmax (HiBit-BRG1) was over 50%.

With Cc1ncsc1-c1ccc([C@H](C)NC(=O)[C@@H]2C[C@@H](O)CN2C(=O)[C@@H](NC(=O)CCCCCCCCCCCCCCNCc2ccc(CCOc3cc(-c4ccccc4O)nnc3N)cc2)C(C)(C)C)cc1 [Compound 261, (2S,4R)-1-((S)-2-(15-((4-(2-((3-amino-6-(2-hydroxyphenyl)pyridazin-4-yl)oxy)ethyl)benzyl)amino)pentadecanamido)-3,3-dimethylbutanoyl)-4-hydroxy-N-((S)-1-(4-(4-methylthiazol-5-yl)phenyl)ethyl)pyrrolidine-2-carboxamide] the “BRM HiBit Degradation Maximum (%)” value (HiBiT-BRM) was “A (“A” indicates maximum degradation ≥75%)”, the DC50 (HiBiT-BRM) was over 10 nM and the DC50 (HiBit-BRG1) was over 1000 nM. The Dmax (HiBit-BRG1) was over 50%.

With Nc1nnc(-c2ccccc2O)cc1OCCc1ccc(C(=O)NCCCCC(=O)NCc2ccc(S(=O)(=O)Nc3cccc4c(Cl)c[nH]c34)cc2)cc1 [Compound 15, 4-(2-((3-amino-6-(2-hydroxyphenyl)pyridazin-4-yl)oxy)ethyl)-N-(5-((4-(N-(3-chloro-1H-indol-7-yl)sulfamoyl)benzyl)amino)-5-oxopentyl)benzamide] the “BRM HiBit Degradation Maximum (%)” value (HiBiT-BRM) was “C (“C” indicates maximum degradation <50%)”, the DC50 (HiBiT-BRM) was over 1000 nM and the DC50 (HiBit-BRG1) was over 1000 nM. The Dmax (HiBit-BRG1) was under 50%.
